Measured values reported in PMC7245249 (Biomedical Journal, 2020).
Counter-ions that a name gives are not always drawn. Like-named read-outs stand apart in the source and are kept apart here.

Experiments:
Human coronavirus OC43 = assay: microbe, parasite or virus in culture; format: cell-based, Human coronavirus OC43 (HCoV-OC43); details: for EC50: read-out: EC50 (IFA), Human coronavirus OC43; for Selectivity index, Human coronavirus OC43: CC50/EC50 in HCT-8 cells
[1] = tested on: Feline infectious peritonitis virus; format: cell-based; details: for EC50: read-out: EC50 (Visual assay), Feline infectious peritonitis virus; for Selectivity index, Feline infectious peritonitis virus: CC50/EC50 in Fcwf-4 cells
in vitro [2] = details: human
in vitro [3] = details: cat (Felis catus)
[4] = Betacoronavirus 1, OC43, HCT-8, 72 h

COc1ccc(C[C@H]2NC[C@H](O)[C@H]2OC(C)=O)cc1 [Anisomycin]
EC50 (Human coronavirus OC43): 0.2 ± 0.03 µM
EC50 [1]: 0.023 µM

CCCCCC[C@H]1C(=O)O[C@H](C)[C@H](NC(=O)c2cccc(NC=O)c2O)C(=O)O[C@@H](C)[C@@H]1OC(=O)CC(C)C [Antimycin A]
EC50 (Human coronavirus OC43; [4]): 0.062 ± 0.003 µM
Selectivity index, Human coronavirus OC43 (Human coronavirus OC43): >806
Selectivity index, Feline infectious peritonitis virus [1]: 1.10
CC50 (in vitro [2]): > 50 µM
CC50 (in vitro [3]): 81.9 ± 6.36 µM

O=C1C(O)=C([C@H]2CC[C@H](c3ccc(Cl)cc3)CC2)C(=O)c2ccccc21 [Atovaquone]
EC50 (Human coronavirus OC43; [4]): 6.78 ± 0.73 µM
Selectivity index, Human coronavirus OC43 (Human coronavirus OC43): >7.37
CC50 (in vitro [2]): > 50 µM
CC50 (in vitro [3]): > 100 µM

CCN(CC)CCCC(C)Nc1ccnc2cc(Cl)ccc12 (stereo not drawn) [Chloroquine (diphosphate), Chloroquine]
EC50 (Human coronavirus OC43; [4]): 27.4 ± 2.51 µM
Selectivity index, Human coronavirus OC43 (Human coronavirus OC43): >1.82
Selectivity index, Feline infectious peritonitis virus [1]: 1.35
EC50 [1]: 27.9 ± 0.72 µM
CC50 (in vitro [2]): > 50 µM
CC50 (in vitro [3]): 37.5 µM

Cc1nc2c([nH]1)-c1ccccc1N(C(=O)c1ccc(NC(=O)c3ccccc3-c3ccccc3)cc1)CC2 [Conivaptan]
EC50 (Human coronavirus OC43; [4]): 12.2 ± 4.2 µM
Selectivity index, Human coronavirus OC43 (Human coronavirus OC43): >4.10
EC50 [1]: 16.9 ± 1.51 µM
CC50 (in vitro [2]): > 50 µM
CC50 (in vitro [3]): > 100 µM

CC[C@H]1CN2CCc3cc(OC)c(OC)cc3[C@@H]2C[C@@H]1C[C@H]1NCCc2cc(OC)c(OC)cc21 [Emetine]
EC50 (Human coronavirus OC43; [4]): 0.21 ± 0.07 µM
Selectivity index, Human coronavirus OC43 (Human coronavirus OC43): >238
Selectivity index, Feline infectious peritonitis virus [1]: 3.00
CC50 (in vitro [2]): > 50 µM
CC50 (in vitro [3]): 0.03 µM

N#C[C@@]1(c2ccc3c(N)ncnn23)O[C@H](CO)[C@@H](O)[C@H]1O [GS-441524]
EC50 (Human coronavirus OC43; [4]): 6.77 ± 0.71 µM
Selectivity index, Human coronavirus OC43 (Human coronavirus OC43): >7.39
CC50 (in vitro [2]): > 50 µM
CC50 (in vitro [3]): > 100 µM

Nc1ccn([C@@H]2O[C@H](CO)[C@@H](O)C2(F)F)c(=O)n1 [Gemcitabine (Hydrochloride), Gemcitabine]
EC50 (Human coronavirus OC43; [4]): 38.6 ± 11.4 µM
Selectivity index, Human coronavirus OC43 (Human coronavirus OC43): >1.30
CC50 (in vitro [2]): > 50 µM
CC50 (in vitro [3]): > 100 µM

COC(=O)C[C@](O)(CCCC(C)(C)O)C(=O)O[C@@H]1C(OC)=C[C@]23CCCN2CCc2cc4c(cc2[C@H]13)OCO4 [Homoharringtonine]
EC50 (Human coronavirus OC43; [4]): 0.29 ± 0.03 µM
Selectivity index, Human coronavirus OC43 (Human coronavirus OC43): 26.7
Selectivity index, Feline infectious peritonitis virus [1]: 1.58
CC50 (in vitro [2]): 7.61 ± 0.6 µM
CC50 (in vitro [3]): 0.049 ± 0.002 µM

O=C(Nc1ccc([N+](=O)[O-])cc1Cl)c1cc(Cl)ccc1O [Niclosamide]
EC50 (Human coronavirus OC43; [4]): 1.36 ± 0.56 µM
Selectivity index, Human coronavirus OC43 (Human coronavirus OC43): >36.8
Selectivity index, Feline infectious peritonitis virus [1]: 0.80
CC50 (in vitro [2]): > 50 µM
CC50 (in vitro [3]): 0.23 µM

CC(=O)Oc1ccccc1C(=O)Nc1ncc([N+](=O)[O-])s1 [Nitazoxanide]
EC50 (Human coronavirus OC43; [4]): 28.6 ± 7.44 µM
Selectivity index, Human coronavirus OC43 (Human coronavirus OC43): >1.75
CC50 (in vitro [2]): > 50 µM
CC50 (in vitro [3]): 4.69 µM

CC[C@H]1/C=C/C=C/C[C@@H](C)[C@H](O)[C@@](C)(O)C(=O)[C@@H](C)[C@H](O)[C@@H](C)C(=O)[C@@H](C)[C@H](O)[C@@H](C)/C=C/C(=O)O[C@@H]2[C@H](C)[C@H](CC1)O[C@]1(CC[C@H](C)[C@H](C[C@@H](C)O)O1)[C@H]2C [Oligomycin]
EC50 (Human coronavirus OC43; [4]): 5.2 µM
Selectivity index, Human coronavirus OC43 (Human coronavirus OC43): >9.58
EC50 (Human coronavirus OC43): 5.22 ± 0.96 µM
Selectivity index, Feline infectious peritonitis virus [1]: 1.06
CC50 (in vitro [2]): > 50 µM
CC50 (in vitro [3]): 18.8 µM

CC[C@@H](C(=O)[C@@H](C)[C@@H](O)[C@H](C)[C@@H]1O[C@@H]([C@@H](CC)C(=O)O)CC[C@@H]1C)[C@H]1O[C@]2(C=C[C@@H](O)[C@]3(CC[C@@](C)([C@H]4CC[C@](O)(CC)[C@H](C)O4)O3)O2)[C@H](C)C[C@@H]1C [Salinomycin]
EC50 (Human coronavirus OC43; [4]): 5.78 ± 2.17 µM
Selectivity index, Human coronavirus OC43 (Human coronavirus OC43): >8.65
Selectivity index, Feline infectious peritonitis virus [1]: 0.49
CC50 (in vitro [2]): > 50 µM
CC50 (in vitro [3]): 0.34 ± 0.1 µM

CCN(CC)CCOc1ccc2c(c1)C(=O)c1cc(OCCN(CC)CC)ccc1-2 [Tilorone (dihydrochloride), Tilorone]
EC50 (Human coronavirus OC43; [4]): 26 ± 2.24 µM
Selectivity index, Human coronavirus OC43 (Human coronavirus OC43): 1.38
Selectivity index, Feline infectious peritonitis virus [1]: 0.84
CC50 (in vitro [2]): 35.9 ± 2.97 µM
CC50 (in vitro [3]): 9.38 µM

CC(C)[C@@H]1NC(=O)[C@H](C)OC(=O)[C@@H](C(C)C)NC(=O)[C@@H](C(C)C)OC(=O)[C@H](C(C)C)NC(=O)[C@H](C)OC(=O)[C@@H](C(C)C)NC(=O)[C@@H](C(C)C)OC(=O)[C@H](C(C)C)NC(=O)[C@H](C)OC(=O)[C@@H](C(C)C)NC(=O)[C@@H](C(C)C)OC1=O [Valinomycin]
EC50 (Human coronavirus OC43; [4]): 0.4 µM
Selectivity index, Human coronavirus OC43 (Human coronavirus OC43): >122
EC50 (Human coronavirus OC43): 0.41 ± 0.02 µM
Selectivity index, Feline infectious peritonitis virus [1]: 2.45
CC50 (in vitro [2]): > 50 µM
CC50 (in vitro [3]): 3.98 ± 0.39 µM

CS(=O)(=O)c1ccc(C(=O)Nc2ccc(Cl)c(-c3ccccn3)c2)c(Cl)c1 [Vismodegib]
EC50 (Human coronavirus OC43; [4]): 47.6 ± 3.29 µM
Selectivity index, Human coronavirus OC43 (Human coronavirus OC43): >1.05
CC50 (in vitro [2]): > 50 µM
CC50 (in vitro [3]): > 100 µM
